For one data set, the system named is A/WSN/33(H1N1) virus. Description: microbe, parasite or virus in culture. The data set is classed as cell-based, influenza A virus. Conditions: for inhibition at 100 µM: read-out: %-inhibition in viral yield reduction assay screening; for EC50: read-out: EC50 viral yield assay.
Another data set is described as follows: in vitro. Conditions: dog.
The test system of data set [1] is A/California/7/09(H1N1pdm). The data set can be described thus: microbe, parasite or virus in culture. The data set is classed as cell-based. Conditions: Influenza A virus, read-out: EC50 viral yield reduction assay.
In a further data set the test system is A/HK/1/68(H3N2). Description: microbe, parasite or virus in culture. It is filed as cell-based. The note with it: Influenza A virus, H3N2, read-out: EC50 viral yield reduction assay.
The subject of another data set is B/Florida/04/2006. The data set can be described thus: microbe, parasite or virus in culture. It is filed as cell-based. Conditions: Influenza B virus, read-out: EC50 viral yield reduction assay.
Data set [2] relates to H5 PA-PB1 heterodimeric complex. It is filed as biochemical, influenza A virus.
A further data set addresses H1 polymerase (Influenza A virus, UniProt P15659). The data set can be described thus: cell-based. More on the design: species or system A/WSN/33(H1N1). The note with it: EC50 minigenome luciferase reporter assay. (A reporter such as luciferase makes a cellular process visible.)
Setting [3] is: Influenza A virus, H1N1|WSN, MDCK.

33 compounds from publication PMC12254823 (Acta Pharmaceutica Sinica. B, 2025) can be followed below.

As usually defined, the inhibition is the share of the control response that was lost under treatment. As a reminder, the EC50 is the concentration giving half of the maximal effect.

“And” between values parts separate entries of the source, which are not always exact repeats. Identical values can stand only once. Like-named read-outs stand apart in the source and are kept apart here.

`Cc1ccccc1NCC(=O)Nc1ccccc1C(=O)NCc1cccc2cn[nH]c12` [Compound 1, N-[(1H-Indazol-7-yl)methyl]-2-[2-(o-tolylamino)acetamido]benzamide]: the inhibition at 100 µM in the data set on A/WSN/33(H1N1) virus (setting [3]) was found to be 25%. Further, the CC50 in the data set “in vitro” is > 100 µM.

For the compound `Cc1ccc(NCC(=O)Nc2ccccc2C(=O)NCc2cccc3cn[nH]c23)cc1` [Compound 2, N-[(1H-Indazol-7-yl)methyl]-2-[2-(p-tolylamino)acetamido]benzamide], in the data set on A/WSN/33(H1N1) virus (setting [3]), the inhibition at 100 µM was determined as 10.2%. Moreover, the CC50 in the data set “in vitro” was > 100 µM.

`Cc1cccc(NCC(=O)Nc2ccccc2C(=O)NCc2cccc3cn[nH]c23)c1` [Compound 3, N-[(1H-Indazol-7-yl)methyl]-2-[2-(m-tolylamino)acetamido]benzamide]: the inhibition at 100 µM with A/WSN/33(H1N1) virus (setting [3]) was 18.6%. Also, the CC50 in the data set “in vitro” is > 100 µM.

Regarding `O=C(CNC1CCCCC1)Nc1ccccc1C(=O)NCc1cccc2cn[nH]c12` [Compound 4, N-[(1H-Indazol-7-yl)methyl]-2-[2-(cyclohexylamino)acetamido]benzamide], in the data set with A/WSN/33(H1N1) virus (setting [3]), the inhibition at 100 µM is < 2%. For the same compound, in “in vitro”, the CC50 is > 100 µM.

As for `O=C(CN1CCSCC1)Nc1ccccc1C(=O)NCc1cccc2cn[nH]c12` [Compound 5, N-[(1H-Indazol-7-yl)methyl]-2-[2-(thiomorpholin-4-yl)acetamido]benzamide], in the data set with A/WSN/33(H1N1) virus (setting [3]), the inhibition at 100 µM is < 2%. Besides, the CC50 in “in vitro” is > 100 µM.

For the compound `O=C(CNc1ccc(Cl)cc1)Nc1ccccc1C(=O)NCc1cccc2cn[nH]c12` [Compound 6, N-[(1H-Indazol-7-yl)methyl]-2-{2-[(4-chlorophenyl)amino]acetamido}benzamide], the inhibition at 100 µM in the data set with A/WSN/33(H1N1) virus (setting [3]) was < 2%. Also, the CC50 in “in vitro” is > 100 µM.

As for `O=C(CNCc1ccccc1)Nc1ccccc1C(=O)NCc1cccc2cn[nH]c12` [Compound 7, N-[(1H-Indazol-7-yl)methyl]-2-[2-(benzylamino)acetamido]benzamide], the inhibition at 100 µM in the data set with A/WSN/33(H1N1) virus (setting [3]) was < 2%. The CC50 in “in vitro” is > 50 µM.

For `O=C(CN1CCOCC1)Nc1ccccc1C(=O)NCc1cccc2cn[nH]c12` [Compound 8, N-[(1H-Indazol-7-yl)methyl]-2-(2-morpholinoacetamido)benzamide], in the data set on A/WSN/33(H1N1) virus (setting [3]), the inhibition at 100 µM is < 2%. The CC50 in the data set “in vitro” was > 100 µM.

Turning to `O=C(/C=C/c1ccc(Br)cc1)NCc1cccc2cn[nH]c12` [Compound 9, (E)-N-[(1H-Indazol-7-yl)methyl]-3-(4-bromophenyl)acrylamide], in the data set with A/WSN/33(H1N1) virus (setting [3]), the inhibition at 100 µM is < 2%. For the same compound, in “in vitro”, the CC50 is > 100 µM.

Regarding `O=C(/C=C/c1ccc(Cl)cc1)NCc1cccc2cn[nH]c12` [Compound 10, (E)-N-[(1H-Indazol-7-yl)methyl]-3-(4-chlorophenyl)acrylamide], the inhibition at 100 µM with A/WSN/33(H1N1) virus (setting [3]) was < 2%. Besides, the CC50 in the data set “in vitro” is > 100 µM.

As to `O=C(/C=C/c1ccc(C(F)(F)F)cc1)NCc1cccc2cn[nH]c12` [Compound 11, (E)-N-[(1H-Indazol-7-yl)methyl]-3-[4-(trifluoromethyl)phenyl]acrylamide], in the data set on A/WSN/33(H1N1) virus (setting [3]), the inhibition at 100 µM is < 2%. Also, the CC50 in the data set “in vitro” was > 100 µM.

Turning to `O=C(/C=C/c1ccc([N+](=O)[O-])cc1)NCc1cccc2cn[nH]c12` [Compound 12, (E)-N-[(1H-Indazol-7-yl)methyl]-3-(4-nitrophenyl)acrylamide], the inhibition at 100 µM with A/WSN/33(H1N1) virus (setting [3]) was found to be 37.3%. For the same compound, in the data set “in vitro”, the CC50 was > 100 µM.

Take `O=C(/C=C/c1ccc(F)cc1)NCc1cccc2cn[nH]c12` [Compound 13, (E)-N-[(1H-Indazol-7-yl)methyl]-3-(4-fluorophenyl)acrylamide]: the inhibition at 100 µM with A/WSN/33(H1N1) virus (setting [3]) came to 30.5%. Moreover, in the data set “in vitro”, the CC50 was > 100 µM.

As for `COc1ccc(/C=C/C(=O)NCc2cccc3cn[nH]c23)cc1` [Compound 14, (E)-N-[(1H-Indazol-7-yl)methyl]-3-(4-methoxyphenyl)acrylamide], the inhibition at 100 µM in the data set on A/WSN/33(H1N1) virus (setting [3]) stood at 48.4%. Besides, the CC50 in the data set “in vitro” is > 100 µM.

Take `O=C(/C=C/c1ccc(F)c(F)c1)NCc1cccc2cn[nH]c12` [Compound 15, (E)-N-[(1H-Indazol-7-yl)methyl]-3-(3,4-difluorophenyl)acrylamide]: the inhibition at 100 µM in the data set with A/WSN/33(H1N1) virus (setting [3]) was 44.1%. Also, the CC50 in “in vitro” is > 100 µM.

Consider `O=C(/C=C/c1ccncc1)NCc1cccc2cn[nH]c12` [Compound 16, (E)-N-[(1H-Indazol-7-yl)methyl]-3-(pyridin-4-yl)acrylamide], for which, in the data set with A/WSN/33(H1N1) virus (setting [3]), the inhibition at 100 µM turned out to be 48.2%. The CC50 in “in vitro” was > 100 µM.

Regarding `O=C(/C=C/c1ccco1)NCc1cccc2cn[nH]c12` [Compound 17, (E)-N-[(1H-Indazol-7-yl)methyl]-3-(furan-2-yl)acrylamide], in the data set on A/WSN/33(H1N1) virus (setting [3]), the inhibition at 100 µM is 33.9%. Also, in “in vitro”, the CC50 is > 100 µM.

As to `O=C(/C=C/c1cccs1)NCc1cccc2cn[nH]c12` [Compound 18, (E)-N-[(1H-Indazol-7-yl)methyl]-3-(thiophen-2-yl)acrylamide], the inhibition at 100 µM in the data set with A/WSN/33(H1N1) virus (setting [3]) was < 2%. Also, the CC50 in the data set “in vitro” is > 100 µM.

In the case of `S=C(NCc1cccc2cn[nH]c12)Nc1ccccc1` [Compound 19, 1-[(1H-Indazol-7-yl)methyl]-3-phenylthiourea], in the data set on A/WSN/33(H1N1) virus (setting [3]), the inhibition at 100 µM was 25%. In addition, the CC50 in “in vitro” was > 100 µM.

As for `Cc1ccc(NC(=S)NCc2cccc3cn[nH]c23)cc1` [Compound 20, 1-[(1H-Indazol-7-yl)methyl]-3-(p-tolyl)thiourea], the inhibition at 100 µM with A/WSN/33(H1N1) virus (setting [3]) is < 2%. Besides, the CC50 in “in vitro” was > 100 µM.

Regarding `S=C(NCc1cccc2cn[nH]c12)Nc1cccc(Cl)c1` [Compound 21, 1-[(1H-Indazol-7-yl)methyl]-3-(3-chlorophenyl)thiourea], the inhibition at 100 µM with A/WSN/33(H1N1) virus (setting [3]) amounted to 37.5%. Besides, the CC50 in the data set “in vitro” was > 25 µM.

For `S=C(NCc1cccc2cn[nH]c12)Nc1ccc(Cl)cc1` [Compound 22, 1-[(1H-Indazol-7-yl)methyl]-3-(4-chlorophenyl)thiourea], in the data set on A/WSN/33(H1N1) virus (setting [3]), the inhibition at 100 µM is 16.9%. For the same compound, the CC50 in the data set “in vitro” was > 100 µM.

As to `S=C(NCc1cccc2cn[nH]c12)Nc1cccc(Cl)c1Cl` [Compound 23, 1-[(1H-Indazol-7-yl)methyl]-3-(2,3-dichlorophenyl)thiourea], the inhibition at 100 µM in the data set with A/WSN/33(H1N1) virus (setting [3]) is < 2%. In the data set “in vitro”, the CC50 was > 100 µM.

Turning to `COc1ccc(NC(=S)NCc2cccc3cn[nH]c23)cc1OC` [Compound 24, 1-[(1H-Indazol-7-yl)methyl]-3-(3,4-dimethoxyphenyl)thiourea], the EC50 was found to be 0.746 µM in data set [1], 0.54 µM in the data set on A/HK/1/68(H3N2) and 0.23 µM with B/Florida/04/2006. In data set [2], the “PA-PB1 complex co-immunoprecipitated compared to DMSO control” value is 64.5% ± 6.2% and 64.5%. Besides, in the data set with A/WSN/33(H1N1) virus, the “%-inhibition in viral yield reduction assay screening” value amounted to 99.9%. For the same compound, in the data set with A/WSN/33(H1N1) virus (setting [3]), the inhibition at 100 µM is > 90%. In addition, the CC50 in “in vitro” is > 100 µM.

`S=C(NCc1cccc2cn[nH]c12)Nc1ccc(I)cc1` [Compound 25, 1-[(1H-Indazol-7-yl)methyl]-3-(4-iodophenyl)thiourea]: the inhibition at 100 µM in the data set on A/WSN/33(H1N1) virus (setting [3]) came to 74.4%. Further, the CC50 in the data set “in vitro” was > 100 µM.

As to `FC(F)(F)Oc1ccc(NC(=S)NCc2cccc3cn[nH]c23)cc1` [Compound 26, 1-[(1H-Indazol-7-yl)methyl]-3-[4-(trifluoromethoxy)phenyl]thiourea], the inhibition at 100 µM in the data set with A/WSN/33(H1N1) virus (setting [3]) is < 2%. Besides, the CC50 in “in vitro” is > 100 µM.

On to `FC(F)(F)c1ccc(NC(=S)NCc2cccc3cn[nH]c23)cc1` [Compound 27, 1-[(1H-Indazol-7-yl)methyl]-3-[4-(trifluoromethyl)phenyl]thiourea], for which, in the data set with A/WSN/33(H1N1) virus, the “%-inhibition in viral yield reduction assay screening” value was 94.9%, the “selectivity index (CC50/EC50)” value is recorded as > 12.5 and the EC50 was determined as 8.03 µM. In the data set on A/WSN/33(H1N1) virus (setting [3]), the inhibition at 100 µM is > 90% and the half-maximal effective concentration (EC50) amounted to 8.03 µM. The CC50 in the data set “in vitro” was > 100 µM.

`S=C(NCc1ccccc1)NCc1cccc2cn[nH]c12` [Compound 28, 1-[(1H-Indazol-7-yl)methyl]-3-benzylthiourea]: the inhibition at 100 µM in the data set with A/WSN/33(H1N1) virus (setting [3]) was < 2%. In addition, the CC50 in “in vitro” was > 100 µM.

In the case of `Fc1ccc(NC(=S)NCc2cccc3cn[nH]c23)cc1` [Compound 29, 1-[(1H-Indazol-7-yl)methyl]-3-(4-fluorophenyl)thiourea], the inhibition at 100 µM in the data set with A/WSN/33(H1N1) virus (setting [3]) is < 2%. For the same compound, in “in vitro”, the CC50 was > 100 µM.

On to `S=C(NCc1cccc2cn[nH]c12)Nc1ccc(Br)cc1` [Compound 30, 1-[(1H-Indazol-7-yl)methyl]-3-(4-bromophenyl)thiourea], for which the inhibition at 100 µM in the data set on A/WSN/33(H1N1) virus (setting [3]) was < 2%. Also, the CC50 in the data set “in vitro” is > 100 µM.

As for `N#Cc1ccc(NC(=S)NCc2cccc3cn[nH]c23)cc1` [Compound 31, 1-[(1H-indazol-7-yl)methyl]-3-(4-cyanophenyl)thiourea], in the data set with A/WSN/33(H1N1) virus, the “%-inhibition in viral yield reduction assay screening” value is reported as 99.9%, the “selectivity index (CC50/EC50)” value was > 1.73 and the EC50 came out at 14.6 µM. In addition, in the data set with A/WSN/33(H1N1) virus (setting [3]), the inhibition at 100 µM was > 90% and the EC50 was 14.6 µM. Moreover, the CC50 in the data set “in vitro” is > 25 µM.

Take `COC(=O)OCOc1c2n(ccc1=O)N([C@@H]1c3ccccc3SCc3c1ccc(F)c3F)[C@@H]1COCCN1C2=O` [baloxavir marboxil, reference compound]: the concentration giving a half-maximal response (EC50) in the data set on A/WSN/33(H1N1) virus was found to be 0.00095 µM.

On to `NC(=O)c1nc(F)c[nH]c1=O` [favipiravir, reference compound], for which the EC50 worked out at 1.57 µM in the data set with A/WSN/33(H1N1) virus and 0.441 µM at H1 polymerase.
